Data as given in patent US20190263796A1, “LIM KINASE INHIBITORS, PHARMACEUTICAL COMPOSITION AND METHOD OF USE IN LIMK-MEDIATED DISEASES” (CELLIPSE, priority 2016, published 2019).
Like-named read-outs stand apart in the source and are kept apart here. Each block holds one molecule with its values, some of them ahead of it.

What was measured:
LIMK1(h) = LIMK1(h) (Homo sapiens, UniProt P53667); test: LIMK1 kinase assay (Eurofins Panlabs, radiometric); assay type: biochemical; set-up: purchased Eurofins Panlabs Inc. (contract assay service)
LIMK1(h), sequence (P53667 whole entry): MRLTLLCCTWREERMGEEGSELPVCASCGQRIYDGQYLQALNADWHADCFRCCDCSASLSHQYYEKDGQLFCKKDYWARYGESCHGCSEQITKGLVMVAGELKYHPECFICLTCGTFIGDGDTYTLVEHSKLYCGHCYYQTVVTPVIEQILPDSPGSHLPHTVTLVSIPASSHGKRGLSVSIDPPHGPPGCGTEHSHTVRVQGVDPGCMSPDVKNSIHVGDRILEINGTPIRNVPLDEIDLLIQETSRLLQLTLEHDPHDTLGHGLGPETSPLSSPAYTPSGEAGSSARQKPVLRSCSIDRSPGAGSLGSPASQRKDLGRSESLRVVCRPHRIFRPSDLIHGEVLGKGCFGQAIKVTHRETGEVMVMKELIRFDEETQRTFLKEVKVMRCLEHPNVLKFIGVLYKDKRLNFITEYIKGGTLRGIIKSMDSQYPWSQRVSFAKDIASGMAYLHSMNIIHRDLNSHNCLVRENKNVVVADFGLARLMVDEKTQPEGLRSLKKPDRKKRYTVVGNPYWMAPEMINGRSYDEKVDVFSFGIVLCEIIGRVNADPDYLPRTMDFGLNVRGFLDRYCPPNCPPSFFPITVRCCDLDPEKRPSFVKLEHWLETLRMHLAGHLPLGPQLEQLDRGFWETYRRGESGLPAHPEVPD
Protocol: Compounds were tested in a LIMK1 assay performed by Eurofins Panlabs Inc. LIMK1 (h) is incubated with 8 mM MOPS pH 7.0, 0.2 mM EDTA, 0.6 mg/mL cofilin, 10 mM Magnesium acetate and [gamma-33P]-ATP. The reaction is initiated by the addition of the Mg/ATP mix. After incubation for 40 min at room temperature, the reaction is stopped by the addition of phosphoric acid to a concentration of 0.5%. […] IC50 LIMK1 is then determined.

P-MEK/Total MEK [1] = test: Western blot MEK1 phosphorylation, MV4-11; assay type: cell-based; conditions: for IC50: read-out: IC50 P-MEK/Total MEK; for Selectivity ratio: IC50 P-MEK/Total MEK divided by IC50 Phospho-Ser3-Cofilin/Total Cofilin
Protocol: (§1) MV4-11 cell line was originally purchased from the American Type Culture Collection (ATCC) or from the Leibniz-Institut Deutsche Sammlung von Mikroorganismen und Zellkulturen GmbH (DSMZ). MV4-11 cells are cultured in RPMI 1640 20% (v/v) FBS supplemented with 100 U/mL^−1 penicillin, 0.1 mg·mL^−1 streptomycin (PAN Biotech P06-07100) and 2 mM Glutamine (Sigma-Aldrich 59202C). Cells were maintained at 37° C. with 5% CO2.
(§2) In a 6 wells plate (Falcon 353046), 2·10^6 cells in 1.5 mL medium are treated for 2 h with compounds. Cells are then collected and cell lysis is performed at 4° C. using RIPA buffer supplemented with protease inhibitors cocktail (Sigma-Aldrich P8340) and phosphatase inhibitors cocktail (Sigma-Aldrich P5726). Following centrifugation 30 min 15000 g 4° C., supernatants are mixed with Laemmli buffer and denaturation is performed by heating 5 min 95° C. 10 μL of samples are subjected to electrophoresis on 15% SDS-PAGE. After electro-transfer (Mini Transblot, Bio-Rad), the PVDF membrane (Merck-Millipore Immobilon P IPVH00010) is blocked with Tris Buffered Saline, pH 7.4 (TBS) with 0.1% Tween 20 and 5% BSA for 1 h at room temperature under agitation. The membrane was rinsed 3 times 10 min at room temperature under agitation with TBS, 0.1% Tween-20 (TBST) and then 1 h at room temperature with anti-phospho-Ser218/222-MEK1 (Merck-Millipore 07-461, 1/1000 dilution) antibody or anti-MEK1 (Merck-Millipore 07-641, 1/1000 dilution) diluted in TBS, 0.1% Tween 20 and 1% BSA. The membrane is then rinsed 3 times 10 min RT under agitation in TBST and incubated for 1 h with anti-rabbit secondary antibody, horseradish peroxidase conjugated (Jackson Immunoresearch #711-036-152) under agitation at room temperature. After three washes 10 min at room temperature in TBST, the detection of total or phosphorylated cofilin was performed using chemiluminescence kit ECL™ Plus (GE Healthcare RPN2132). For each concentration of compound, ratio between phosphorylated cofilin and total cofilin is determined. This ratio is then expressed as percentage of control ratio (i.e., ratio from DMSO treated cells). IC50 P-MEK/Total MEK is then determined.
(§3) Selectivity ratios are calculated by dividing the IC50 P-MEK/Total MEK value (μM) by the IC50 Phospho-Ser3-Cofilin/Total Cofilin value (μM).

[2] = test system: Phospho-Ser3-Cofilin/Total Cofilin; test: Western blot cofilin phosphorylation, MOLM-13; assay type: cell-based; conditions: Homo sapiens, MOLM-13 cells
Protocol: (§4) MOLM-13 cell line was originally purchased from the Leibniz-Institut Deutsche Sammlung von Mikroorganismen und Zellkulturen GmbH (DSMZ). MOLM-13 cells are cultured in RPMI 1640 20% (v/v) FBS supplemented with 100 U/mL^−1 penicillin, 0.1 mg·mL^−1 streptomycin (PAN Biotech P06-07100). Cells were maintained at 37° C. with 5% CO2.
as §2, with “1 h RT under agitation.” for “1 h at room temperature under agitation.”, “temperature with anti-phospho-Ser3-cofilin (Cell Signaling Technology #3313, 1/1000 dilution)” for “temperature with anti-phospho-Ser218/222-MEK1 (Merck-Millipore 07-461, 1/1000 dilution)”, “antibody or anti-cofilin (Cell Signaling Technology #3312, 1/1000 dilution)” for “antibody or anti-MEK1 (Merck-Millipore 07-641, 1/1000 dilution)”, “10 min at room temperature under agitation” for “10 min RT under agitation”, “cells). IC50 Phospho-Ser3-Cofilin/Total Cofilin is then” for “cells). IC50 P-MEK/Total MEK is then”

P-MEK/Total MEK [3] = test: Western blot MEK1 phosphorylation, MOLM-13; assay type: cell-based; conditions: for IC50: Homo sapiens, read-out: IC50 P-MEK/Total MEK
Protocol: as §4, §2, §3

[4] = test system: Phospho-Ser3-Cofilin/Total Cofilin; test: Western blot cofilin phosphorylation, MV4-11 (II.6); assay type: cell-based; conditions: MV4-11 cells
Protocol: as §1
as §2, with “1 h RT under agitation.” for “1 h at room temperature under agitation.”, “temperature with anti-phospho-Ser3-cofilin (Cell Signaling Technology #3313, 1/1000 dilution)” for “temperature with anti-phospho-Ser218/222-MEK1 (Merck-Millipore 07-461, 1/1000 dilution)”, “antibody or anti-cofilin (Cell Signaling Technology #3312, 1/1000 dilution)” for “antibody or anti-MEK1 (Merck-Millipore 07-641, 1/1000 dilution)”, “10 min at room temperature under agitation” for “10 min RT under agitation”, “cells). IC50 Phospho-Ser3-Cofilin/Total Cofilin is then” for “cells). IC50 P-MEK/Total MEK is then”

P-MEK/Total MEK [5] = test: Western blot MEK1 phosphorylation, HL-60; assay type: cell-based; conditions: HL-60 cells; for IC50: 2 h, read-out: IC50 P-MEK/Total MEK; for Selectivity ratio: IC50 P-MEK/Total MEK divided by IC50 Phospho-Ser3-Cofilin/Total Cofilin
Protocol: as §4, with “HL-60” for “MOLM-13”, “10%” for “20%”
as §2, §3

[6] = test system: Phospho-Ser3-Cofilin/Total Cofilin; test: Western blot cofilin phosphorylation, THP-1; assay type: cell-based; conditions: Homo sapiens; THP-1 cells; 2 h
Protocol: as §4, with “THP-1” for “MOLM-13”
In a 6 wells plate (Falcon 353046), 2·10^6 cells in 1.5 mL medium are treated for 2 h with compounds. Cells are then collected and cell lysis is performed at 4° C. using RIPA buffer supplemented with protease inhibitors cocktail (Sigma-Aldrich P8340) and phosphatase inhibitors cocktail (Sigma-Aldrich P5726). Following centrifugation 30 min 15000 g 4° C., supernatants are mixed with Laemmli buffer and denaturation is performed by heating 5 min 95° C. 10 μL of samples are subjected to electrophoresis on 15% SDS-PAGE. After electro-transfer (Mini Transblot, Bio-Rad), the PVDF membrane (Merck-Millipore Immobilon P IPVH00010) is blocked with Tris Buffered Saline, pH 7.4 (TBS) with 0.1% Tween 20 and 5% BSA for 1 h RT under agitation. […] For each concentration of compound, ratio between phosphorylated cofilin and total cofilin is determined. This ratio is then expressed as percentage of control ratio (i.e., ratio from DMSO treated cells). IC50 Phospho-Ser3-Cofilin/Total Cofilin is then determined.

P-MEK/Total MEK [7] = test: Western blot MEK1 phosphorylation, THP-1; assay type: cell-based; conditions: for IC50: Homo sapiens, read-out: IC50 P-MEK/Total MEK
Protocol: Cells were maintained at 37° C. with 5% CO2.
as §2, §3

IC50 (LIMK1(h); 15 μM ATP, Table 8, read-out: IC50 LIMK1): < 10 nM
IC50 (P-MEK/Total MEK [1]; MV4-11 cells, 2 h): > 1000 nM
IC50 ([2]; 2 h): < 200 nM
IC50 (P-MEK/Total MEK [3]; MOLM-13 cells, 2 h): > 1000 nM
IC50 ([4]; 2 h): < 200 nM
IC50 (P-MEK/Total MEK [5]): > 1000 nM
SMILES: O=S(=O)(Nc1cccc(-c2nc(CCO)sc2-c2ccnc(Nc3ccccc3)n2)c1F)c1c(F)cccc1F [8 (Na)]
Selectivity ratio (P-MEK/Total MEK [1]; MV4-11 cells): 6
Selectivity ratio (P-MEK/Total MEK [3]; MOLM-13 cells, IC50 P-MEK/Total MEK divided by IC50 Phospho-Ser3-Cofilin/Total Cofilin): 42
Selectivity ratio (P-MEK/Total MEK [5]): 42

SMILES: CNC(=O)Cc1nc(-c2cccc(NS(=O)(=O)c3c(F)cccc3F)c2F)c(-c2ccnc(Nc3ccccc3)n2)s1 [Compound 9, 2-(4-(3-(2,6-difluorophenylsulfonamido)-2-fluorophenyl)-5-(2-(phenylamino)pyrimidin-4-yl)thiazol-2-yl)-N-methylacetamide]
IC50 [6]: < 200 nM
IC50 (P-MEK/Total MEK [1]; Homo sapiens, MV4-11, 2 h): > 1000 nM
IC50 ([2]; MOLM-13, 2 h): < 200 nM
IC50 (P-MEK/Total MEK [3]; MOLM-13, 2 h): > 1000 nM
IC50 ([4]; Homo sapiens, 2 h): 200 to 1000 nM
IC50 (P-MEK/Total MEK [7]; THP-1, 2 h): 200 to 1000 nM

IC50 [6]: < 200 nM
IC50 (LIMK1(h); 15 μM ATP, Table 2, read-out: IC50 LIMK1): < 10 nM
IC50 (P-MEK/Total MEK [1]; Homo sapiens, MV4-11 cells, 2 h): > 1000 nM
IC50 ([4]; Homo sapiens, MV4-11, 2 h): 200 to 1000 nM
IC50 (P-MEK/Total MEK [5]; Homo sapiens): > 1000 nM
IC50 (P-MEK/Total MEK [7]; THP-1 cells, 2 h): 200 to 1000 nM
SMILES: O=S(=O)(Nc1cccc(-c2nc(CCO)sc2-c2ccnc(Nc3ccccc3)n2)c1F)c1c(F)cccc1F [Compound 8, 2,6-difluoro-N-(2-fluoro-3-(2-(2-hydroxyethyl)-5-(2-(phenylamino)pyrimidin-4-yl)thiazol-4-yl)phenyl)benzenesulfonamide]
Selectivity ratio (P-MEK/Total MEK [1]; MV4-11 cells): 4
Selectivity ratio (P-MEK/Total MEK [5]): 31
Selectivity ratio (P-MEK/Total MEK [7]; THP-1 cells, IC50 P-MEK/Total MEK divided by IC50 Phospho-Ser3-Cofilin/Total Cofilin): 80

SMILES: CC(C)(C)c1nc(-c2cccc(NS(=O)(=O)c3c(F)cccc3F)c2F)c(-c2ccnc(Nc3ccccc3)n2)s1 [Compound 1, N-(3-(2-(tert-butyl)-5-(2-(phenylamino)pyrimidin-4-yl)thiazol-4-yl)-2-fluorophenyl)-2,6-difluorobenzenesulfonamide]
IC50 (LIMK1(h)): 10 to 100 nM
IC50 (LIMK1(h); read-out: IC50 LIMK1, Table 5, value reported in part II.1): 10 to 100 nM
IC50 (P-MEK/Total MEK [1]; Homo sapiens, MV4-11, 2 h): > 1000 nM
Selectivity ratio (P-MEK/Total MEK [1]; MV4-11 cells): 125
IC50 ([4]; Homo sapiens, 2 h): < 200 nM
